Patent publication US9765085B2, “SHIP1 modulators and methods related thereto” (Aquinox Pharmaceuticals (Canada) Inc., priority 2013, dated 2017)

Each compound was assayed against T1, His-hSHIP1 enzyme (Homo sapiens, UniProt Q92835) (assay: His-hSHIP1 activity (phosphatase assay, IP4 substrate, Biomol Green)). Details: ratio of initial velocities (IP4 25/IP4 250 μM final) compared with a reference SHIP1 activator; 37° C.
T1 construct: His
T1 sequence (Q92835 1-1189): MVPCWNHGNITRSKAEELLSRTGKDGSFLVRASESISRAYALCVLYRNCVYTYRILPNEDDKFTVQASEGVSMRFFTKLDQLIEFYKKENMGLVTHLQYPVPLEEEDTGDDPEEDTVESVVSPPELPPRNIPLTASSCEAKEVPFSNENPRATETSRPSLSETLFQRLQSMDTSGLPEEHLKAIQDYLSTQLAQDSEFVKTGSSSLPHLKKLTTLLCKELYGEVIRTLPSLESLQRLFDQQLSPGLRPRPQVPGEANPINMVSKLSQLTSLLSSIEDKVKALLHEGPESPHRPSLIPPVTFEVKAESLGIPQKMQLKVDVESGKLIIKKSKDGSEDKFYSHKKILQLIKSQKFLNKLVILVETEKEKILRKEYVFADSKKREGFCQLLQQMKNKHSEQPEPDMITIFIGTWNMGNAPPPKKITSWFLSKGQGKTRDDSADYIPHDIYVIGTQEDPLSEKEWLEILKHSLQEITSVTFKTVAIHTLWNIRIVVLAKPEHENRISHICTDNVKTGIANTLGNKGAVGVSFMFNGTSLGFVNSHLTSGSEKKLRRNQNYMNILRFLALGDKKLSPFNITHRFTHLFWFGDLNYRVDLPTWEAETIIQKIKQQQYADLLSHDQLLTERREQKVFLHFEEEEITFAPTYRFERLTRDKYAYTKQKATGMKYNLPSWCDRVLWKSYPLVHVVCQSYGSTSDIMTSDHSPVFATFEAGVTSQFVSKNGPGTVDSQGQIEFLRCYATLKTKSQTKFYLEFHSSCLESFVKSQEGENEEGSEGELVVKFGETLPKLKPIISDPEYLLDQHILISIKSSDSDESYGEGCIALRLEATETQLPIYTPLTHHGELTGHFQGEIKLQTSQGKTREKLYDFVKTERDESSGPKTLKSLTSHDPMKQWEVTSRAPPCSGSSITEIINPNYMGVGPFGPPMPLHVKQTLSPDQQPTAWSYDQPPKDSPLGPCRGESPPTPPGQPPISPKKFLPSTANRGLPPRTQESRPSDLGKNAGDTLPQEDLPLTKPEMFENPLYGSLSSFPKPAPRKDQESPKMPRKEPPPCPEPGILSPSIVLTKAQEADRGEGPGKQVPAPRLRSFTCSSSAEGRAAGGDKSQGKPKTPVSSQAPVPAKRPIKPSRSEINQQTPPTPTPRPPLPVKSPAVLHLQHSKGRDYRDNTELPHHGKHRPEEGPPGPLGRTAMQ
Assay type: biochemical
Set-up: key: +++: higher than reference or reference - 15%; ++: reference - 16% to reference - 30%; +: reference - 31% or lower; −: inhibitor
Method: Test compounds are dissolved in 95% ethanol to form stock solutions. Before screening, the stock solutions are diluted with Phosphatase Assay Buffer (20 mM Tris-HCL, 10 mM MgCl2 pH 7.5, 0.02% Tween 20) to form working assay solutions that contain 10% ethanol. The assay is carried out on 96-well microtiter plates using a modified procedure of that reported by Ong et al., Blood 110, 1942-1949, 2007 and Yang et al., Org Lett 7, 1073-1076, 2005, both of which references are incorporated herein by reference in their entirety.
A master mix is prepared that contains 50 μL of His-hSHIP1 enzyme (0.4-1.6 ng/μL final), 25 μL of the substrate, IP4 (25 or 250 μM final), and 50 μL of test compound in 3.3% ethanol ([…]). Control blanks are also prepared by replacing His-hSHIP1 enzyme, IP4, or test compounds with Phosphate Assay Buffer. […] Each reaction component is preincubated at 37° C. for 30 min before adding to a 96-well microtiter plate. The master mix is then incubated at 37° C. At time 0, 20, 25 and 30 min, 25 μL of the master mix is removed and transferred to a new 96-well microtiter plate, to which 100 μL of Biomol Green Reagent is added to stop the reaction. After incubating the mixture for 20 min at room temperature for color development, the absorbance is read with SpectraMax Plus 96-well plate reader at a wavelength of 650 nm. Phosphate released is plotted against time to calculate the initial velocities (i.e., slope of the graph) at each IP4 concentration. The initial velocities are baseline corrected and the ratio of initial velocities (IP425/IP4250) is calculated and used to rate the test compounds.
The compound numbers in Table 2 correspond to the compound numbers in Table 1 above. Scoring of the compound is expressed as follows: […]

Row | Compound | Scoring (Initial Velocity Ratio)
1 | C#C[C@]1(O)CC[C@H]2[C@H](CO)[C@@H]([C@@]3(C)CC[C@H](O)C[C@@H]3CO)CC[C@@]21C [compound 28, (1R,3aS,4R,5S,7aS)-1-ethynyl-5-((1R,2S,4S)-4-hydroxy-2-(hydroxymethyl)-1-methylcyclohexyl)-4-(hydroxymethyl)-7a-methyloctahydro-1H-inden-1-ol] | ++
2 | C[C@@H]1CC[C@@]2(OC1)O[C@H]1C[C@H]3[C@H](CO)[C@@H]([C@@]4(C)CC[C@H](O)C[C@@H]4CO)CC[C@]3(C)[C@H]1[C@@H]2C [compound 29, (1S,3S,4R)-3-(hydroxymethyl)-4-((2R,3S,3aR,3bS,5′R,6S,7R,7aS,8aS)-7-(hydroxymethyl)-3,3b,5′-trimethyltetradecahydrospiro[indeno[2,1-b]furan-2,2′-pyran]-6-yl)-4-methylcyclohexanol] | ++
3 | C[C@]1([C@H]2CC[C@]3(C)C(c4ccco4)=CC[C@H]3[C@@H]2CO)CC[C@H](O)C[C@@H]1CO [compound 30, (1S,3S,4R)-4-((3aS,6S,7R,7aS)-3-(furan-2-yl)-7-(hydroxymethyl)-3a-methyl-3a,4,5,6,7,7a-hexahydro-1H-inden-6-yl)-3-(hydroxymethyl)-4-methylcyclohexanol] | +
4 | C=C1CC[C@H]2[C@H](CO)[C@@H]([C@@]3(C)CC[C@H](NC(C)=O)C[C@@H]3CO)CC[C@]12C [compound 32, N-((1S,3S,4R)-3-(hydroxymethyl)-4-((3aS,4R,5S,7aS)-4-(hydroxymethyl)-7a-methyl-1-methyleneoctahydro-1H-inden-5-yl)-4-methylcyclohexyl)acetamide] | ++
5 | C[C@]1([C@H]2CC[C@]3(C)c4[nH]ncc4C[C@H]3[C@@H]2CO)CC[C@H](O)C[C@@H]1CO [compound 33, (1S,3S,4R)-3-(hydroxymethyl)-4-((4aS,5R,6S,8aS)-5-(hydroxymethyl)-8a-methyl-1,4,4a,5,6,7,8,8a-octahydroindeno[1,2-c]pyrazol-6-yl)-4-methylcyclohexanol] | +
6 | C[C@]1([C@H]2CC[C@@]3(C)[C@@H](CC[C@@]3(O)c3cccs3)[C@@H]2CO)CC[C@H](O)C[C@@H]1CO [compound 34, (1S,3aS,4R,5S,7aS)-5-((1R,2S,4S)-4-hydroxy-2-(hydroxymethyl)-1-methylcyclohexyl)-4-(hydroxymethyl)-7a-methyl-1-(thiophen-2-yl)octahydro-1H-inden-1-ol] | +
7 | C[C@]1([C@H]2CC[C@@]3(C)[C@@H](CC[C@@]3(O)c3ccccn3)[C@@H]2CO)CC[C@H](O)C[C@@H]1CO [compound 36, (1S,3aS,4R,5S,7aS)-5-((1R,2S,4S)-4-hydroxy-2-(hydroxymethyl)-1-methylcyclohexyl)-4-(hydroxymethyl)-7a-methyl-1-(pyridin-2-yl)octahydro-1H-inden-1-ol] | ++
8 | C[C@]1([C@H]2CCC3=C(C[C@@H](O)[C@@]3(C)c3ccccc3)[C@@H]2CO)CC[C@H](O)C[C@@H]1CO [compound 37, (1S,2R,4R,5S)-5-((1R,2S,4S)-4-hydroxy-2-(hydroxymethyl)-1-methylcyclohexyl)-4-(hydroxymethyl)-1-methyl-1-phenyl-2,3,4,5,6,7-hexahydro-1H-inden-2-ol] | +
9 | (1S,3S,4R)-4-((2R,3S,3aR,3bS,5′R,6S,7R,7aS,8aS)-7-(aminomethyl)-3,3b,5′-trimethyltetradecahydrospiro[indeno[2,1-b]furan-2,2′-pyran]-6-yl)-3-(hydroxymethyl)-4-methylcyclohexanol acetate [compound 14] | ++
